*1 amine or outer side, *2 acyl side, *3 side chain or, on linkers, in order; H or OH if unused. Where a SMILES comes first, the peptide text is derived from it. Bridges are numbered along the chain shown (N, C = ends). [ ]: non-standard residue; d: D form. The star is where a group is joined. hPhe(3-Cl-4-CF3) = N[C@@H](CCc1ccc(C(F)(F)F)c(Cl)c1)C(=O)O; NPrPhe(4-CF3) = CCCN[C@@H](Cc1ccc(C(F)(F)F)cc1)C(=O)O; Pro(4-spirocPr) = O=C(O)[C@@H]1CC2(CC2)CN1; Abu(4,4,4-F3) = N[C@@H](CC(F)(F)F)C(=O)O; NMeGly(cPent) = CN[C@H](C(=O)O)C1CCCC1; X44 = CC1(C)CN([*:1])[C@@H]1C(=O)[*:2]; Hyp = O=C(O)[C@@H]1C[C@@H](O)CN1; Gly(cBu) = N[C@H](C(=O)O)C1CCC1; NMeD = CN[C@@H](CC(=O)O)C(=O)O; NMeL = CN[C@@H](CC(C)C)C(=O)O; X12 = N#CCN(CC(=O)[*:2])[*:1]; Pip = O=C(O)[C@@H]1CCCCN1; Morpholide = C1CN(*)CCO1; Ac5c = NC1(C(=O)O)CCCC1; Aze = O=C(O)[C@@H]1CCN1; NcPrGly = O=C(O)CNC1CC1; Abu = CC[C@H](N)C(=O)O; NPrGly = CCCNCC(=O)O; NEtG = CCNCC(=O)O; Sar = CNCC(=O)O
Experiments:
[1] = biological target: GDP-bound NRAS wild-type protein (Homo sapiens, UniProt P01111); assay: Binding to NRAS by surface plasmon resonance (SPR), Single Cycle Kinetics; conditions: SPR, GDP-bound NRAS wild-type protein vs GDP-bound KRAS wild-type protein
[2] = biological target: GDP-bound KRAS wild-type protein (Homo sapiens, UniProt P01116); assay: Binding to KRAS by surface plasmon resonance (SPR), Single Cycle Kinetics; conditions: SPR Single Cycle Kinetics, GDP-bound KRAS wild-type protein, 1:1 binding model; read-out: KRAS KD
[3] = biological target: GDP-bound HRAS wild-type protein (Homo sapiens, UniProt P01112); assay: Binding to HRAS by surface plasmon resonance (SPR), Single Cycle Kinetics; conditions: SPR, GDP-bound HRAS wild-type protein vs GDP-bound KRAS wild-type protein
Chain of GDP-bound HRAS wild-type protein (P01112 whole entry): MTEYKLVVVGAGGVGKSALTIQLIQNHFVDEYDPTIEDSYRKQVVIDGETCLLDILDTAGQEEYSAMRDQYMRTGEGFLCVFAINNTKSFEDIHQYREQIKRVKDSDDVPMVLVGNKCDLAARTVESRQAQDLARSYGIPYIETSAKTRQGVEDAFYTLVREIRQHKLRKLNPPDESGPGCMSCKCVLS

Chain of GDP-bound KRAS wild-type protein (P01116 whole entry): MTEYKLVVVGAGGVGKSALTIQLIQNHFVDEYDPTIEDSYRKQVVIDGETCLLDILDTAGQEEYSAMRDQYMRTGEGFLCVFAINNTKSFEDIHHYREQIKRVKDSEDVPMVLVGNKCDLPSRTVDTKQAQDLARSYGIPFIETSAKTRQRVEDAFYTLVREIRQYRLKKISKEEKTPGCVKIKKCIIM
Chain of GDP-bound NRAS wild-type protein (P01111 whole entry): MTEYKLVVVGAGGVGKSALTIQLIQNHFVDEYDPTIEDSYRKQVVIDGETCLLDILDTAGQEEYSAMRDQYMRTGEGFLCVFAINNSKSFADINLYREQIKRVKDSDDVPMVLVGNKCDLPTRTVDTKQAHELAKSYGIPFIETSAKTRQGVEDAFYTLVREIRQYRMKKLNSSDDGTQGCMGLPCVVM

SMILES	NRAS/KRAS (ratio of KD value for NRAS to KD value for KRAS) [1]	Kd [2] [nM]	HRAS/KRAS (ratio of KD value for HRAS to KD value for KRAS) [3]
CCCN1C(=O)CN(C)C(=O)CN(C)C(=O)[C@H](CC)NC(=O)[C@H](CC(C)C)N(C)C(=O)C[C@@H](C(=O)N2CCOCC2)N(C)C(=O)[C@H](C2CCCC2)N(C)C(=O)C2(CCCC2)NC(=O)[C@@H]2CCCN2C(=O)[C@H](CCc2ccc(C(F)(F)F)c(Cl)c2)NC(=O)CN(C)C(=O)[C@@H]1Cc1ccc(C(F)(F)F)cc1 [PP0248] ([NMeL][Abu][Sar][Sar][NPrPhe(4-CF3)][Sar][hPhe(3-Cl-4-CF3)]P[Ac5c][NMeGly(cPent)][NMeD]-Morpholide; lactam N-11)	B (a compound having 3 or more and less than 10 is denoted as B)	1.1	B (a compound having 3 or more and less than 10 is denoted as B)
CCCN1C(=O)CN(C)C(=O)CN(C)C(=O)[C@H](CC(F)(F)F)NC(=O)[C@H](CC(C)C)N(C)C(=O)C[C@@H](C(=O)N2CCOCC2)N(C)C(=O)[C@H](C2CCCC2)N(C)C(=O)C2(CCCC2)NC(=O)[C@@H]2CCCN2C(=O)[C@H](CCc2ccc(C(F)(F)F)c(Cl)c2)NC(=O)CN(C)C(=O)[C@@H]1Cc1ccc(C(F)(F)F)cc1 [PP0249] ([NMeL][Abu(4,4,4-F3)][Sar][Sar][NPrPhe(4-CF3)][Sar][hPhe(3-Cl-4-CF3)]P[Ac5c][NMeGly(cPent)][NMeD]-Morpholide; lactam N-11)	B (a compound having 3 or more and less than 10 is denoted as B)	0.69	C (A compound having a KD ratio of 0.1 or more and less than 3 is denoted as C)
CCCN1C(=O)CN(C)C(=O)CN(C)C(=O)[C@H](C2CCC2)NC(=O)[C@H](CC(C)C)N(C)C(=O)C[C@@H](C(=O)N2CCOCC2)N(C)C(=O)[C@H](C2CCCC2)N(C)C(=O)C2(CCCC2)NC(=O)[C@@H]2CCCN2C(=O)[C@H](CCc2ccc(C(F)(F)F)c(Cl)c2)NC(=O)CN(C)C(=O)[C@@H]1Cc1ccc(C(F)(F)F)cc1 [PP0250] ([NMeL][Gly(cBu)][Sar][Sar][NPrPhe(4-CF3)][Sar][hPhe(3-Cl-4-CF3)]P[Ac5c][NMeGly(cPent)][NMeD]-Morpholide; lactam N-11)	B (a compound having 3 or more and less than 10 is denoted as B)	0.12	C (A compound having a KD ratio of 0.1 or more and less than 3 is denoted as C)
CCCN1C(=O)CN(C)C(=O)CN(C2CC2)C(=O)[C@H]([C@@H](C)CC)NC(=O)[C@H](CC(C)C)N(C)C(=O)C[C@@H](C(=O)N2CCOCC2)N(C)C(=O)[C@H](C2CCCC2)N(C)C(=O)C2(CCCC2)NC(=O)[C@@H]2CCCN2C(=O)[C@H](CCc2ccc(C(F)(F)F)c(Cl)c2)NC(=O)CN(C)C(=O)[C@@H]1Cc1ccc(C(F)(F)F)cc1 [PP0252] ([NMeL]I[NcPrGly][Sar][NPrPhe(4-CF3)][Sar][hPhe(3-Cl-4-CF3)]P[Ac5c][NMeGly(cPent)][NMeD]-Morpholide; lactam N-11)	B (a compound having 3 or more and less than 10 is denoted as B)	0.34	B (a compound having 3 or more and less than 10 is denoted as B)
CCCN1CC(=O)N(C)CC(=O)N(CCC)[C@@H](Cc2ccc(C(F)(F)F)cc2)C(=O)N(C)CC(=O)N[C@@H](CCc2ccc(C(F)(F)F)c(Cl)c2)C(=O)N2CCC[C@H]2C(=O)NC2(CCCC2)C(=O)N(C)[C@@H](C2CCCC2)C(=O)N(C)[C@H](C(=O)N2CCOCC2)CC(=O)N(C)[C@@H](CC(C)C)C(=O)N[C@@H]([C@@H](C)CC)C1=O [PP0253] ([NMeL]I[NPrGly][Sar][NPrPhe(4-CF3)][Sar][hPhe(3-Cl-4-CF3)]P[Ac5c][NMeGly(cPent)][NMeD]-Morpholide; lactam N-11)	B (a compound having 3 or more and less than 10 is denoted as B)	0.55	B (a compound having 3 or more and less than 10 is denoted as B)
CCCN1C(=O)CN(C)C(=O)CN(CC#N)C(=O)[C@H]([C@@H](C)CC)NC(=O)[C@H](CC(C)C)N(C)C(=O)C[C@@H](C(=O)N2CCOCC2)N(C)C(=O)[C@H](C2CCCC2)N(C)C(=O)C2(CCCC2)NC(=O)[C@@H]2CCCN2C(=O)[C@H](CCc2ccc(C(F)(F)F)c(Cl)c2)NC(=O)CN(C)C(=O)[C@@H]1Cc1ccc(C(F)(F)F)cc1 [PP0254] ([NMeL]I[X12][Sar][NPrPhe(4-CF3)][Sar][hPhe(3-Cl-4-CF3)]P[Ac5c][NMeGly(cPent)][NMeD]-Morpholide; lactam N-11)	B (a compound having 3 or more and less than 10 is denoted as B)	0.16	C (A compound having a KD ratio of 0.1 or more and less than 3 is denoted as C)
CCCN1C(=O)CN(C)C(=O)[C@H]2N(CC2(C)C)C(=O)[C@H]([C@@H](C)CC)NC(=O)[C@H](CC(C)C)N(C)C(=O)C[C@@H](C(=O)N2CCOCC2)N(C)C(=O)[C@H](C2CCCC2)N(C)C(=O)C2(CCCC2)NC(=O)[C@@H]2CCCN2C(=O)[C@H](CCc2ccc(C(F)(F)F)c(Cl)c2)NC(=O)CN(C)C(=O)[C@@H]1Cc1ccc(C(F)(F)F)cc1 [PP0256] ([NMeL]I[X44][Sar][NPrPhe(4-CF3)][Sar][hPhe(3-Cl-4-CF3)]P[Ac5c][NMeGly(cPent)][NMeD]-Morpholide; lactam N-11)	B (a compound having 3 or more and less than 10 is denoted as B)	0.99	C (A compound having a KD ratio of 0.1 or more and less than 3 is denoted as C)
CCCN1C(=O)[C@@H]2CCN2C(=O)CN(CC)C(=O)[C@H]([C@@H](C)CC)NC(=O)[C@H](CC(C)C)N(C)C(=O)C[C@@H](C(=O)N2CCOCC2)N(C)C(=O)[C@H](C2CCCC2)N(C)C(=O)C2(CCCC2)NC(=O)[C@@H]2CCCN2C(=O)[C@H](CCc2ccc(C(F)(F)F)c(Cl)c2)NC(=O)CN(C)C(=O)[C@@H]1Cc1ccc(C(F)(F)F)cc1 [PP0259] ([NMeL]I[NEtG][Aze][NPrPhe(4-CF3)][Sar][hPhe(3-Cl-4-CF3)]P[Ac5c][NMeGly(cPent)][NMeD]-Morpholide; lactam N-11)	C (A compound having a KD ratio of 0.1 or more and less than 3 is denoted as C)	0.42	B (a compound having 3 or more and less than 10 is denoted as B)
CCCN1C(=O)CN(C)C(=O)CN(C)C(=O)[C@H]([C@@H](C)CC)NC(=O)[C@H](CC(C)C)N(C)C(=O)C[C@@H](C(=O)N2CCOCC2)N(C)C(=O)[C@H](C2CCCC2)N(C)C(=O)C2(CCCC2)NC(=O)[C@@H]2CCN2C(=O)[C@H](CCc2ccc(C(F)(F)F)c(Cl)c2)NC(=O)CN(C)C(=O)[C@@H]1Cc1ccc(C(F)(F)F)cc1 [PP0260] ([NMeL]I[Sar][Sar][NPrPhe(4-CF3)][Sar][hPhe(3-Cl-4-CF3)][Aze][Ac5c][NMeGly(cPent)][NMeD]-Morpholide; lactam N-11)	B (a compound having 3 or more and less than 10 is denoted as B)	0.39	C (A compound having a KD ratio of 0.1 or more and less than 3 is denoted as C)
CCCN1C(=O)CN(C)C(=O)CN(C)C(=O)[C@H]([C@@H](C)CC)NC(=O)[C@H](CC(C)C)N(C)C(=O)C[C@@H](C(=O)N2CCOCC2)N(C)C(=O)[C@H](C2CCCC2)N(C)C(=O)C2(CCCC2)NC(=O)[C@@H]2CC3(CC3)CN2C(=O)[C@H](CCc2ccc(C(F)(F)F)c(Cl)c2)NC(=O)CN(C)C(=O)[C@@H]1Cc1ccc(C(F)(F)F)cc1 [PP0261] ([NMeL]I[Sar][Sar][NPrPhe(4-CF3)][Sar][hPhe(3-Cl-4-CF3)][Pro(4-spirocPr)][Ac5c][NMeGly(cPent)][NMeD]-Morpholide; lactam N-11)	B (a compound having 3 or more and less than 10 is denoted as B)	0.14	C (A compound having a KD ratio of 0.1 or more and less than 3 is denoted as C)
CCCN1C(=O)CN(C)C(=O)CN(C)C(=O)[C@H]([C@@H](C)CC)NC(=O)[C@H](CC(C)C)N(C)C(=O)C[C@@H](C(=O)N2CCOCC2)N(C)C(=O)[C@H](C2CCCC2)N(C)C(=O)C2(CCCC2)NC(=O)[C@@H]2C[C@@H](OC)CN2C(=O)[C@H](CCc2ccc(C(F)(F)F)c(Cl)c2)NC(=O)CN(C)C(=O)[C@@H]1Cc1ccc(C(F)(F)F)cc1 [PP0262] ([NMeL]I[Sar][Sar][NPrPhe(4-CF3)][Sar][hPhe(3-Cl-4-CF3)][Hyp](Me)[Ac5c][NMeGly(cPent)][NMeD]-Morpholide; lactam N-11)	B (a compound having 3 or more and less than 10 is denoted as B)	0.044	B (a compound having 3 or more and less than 10 is denoted as B)
CCCN1C(=O)CN(C)C(=O)CN(C)C(=O)[C@H]([C@@H](C)CC)NC(=O)[C@H](CC(C)C)N(C)C(=O)C[C@@H](C(=O)N2CCOCC2)N(C)C(=O)[C@H](C2CCCC2)N(C)C(=O)C2(CCCC2)NC(=O)[C@@H]2CCCCN2C(=O)[C@H](CCc2ccc(C(F)(F)F)c(Cl)c2)NC(=O)CN(C)C(=O)[C@@H]1Cc1ccc(C(F)(F)F)cc1 [PP0263] ([NMeL]I[Sar][Sar][NPrPhe(4-CF3)][Sar][hPhe(3-Cl-4-CF3)][Pip][Ac5c][NMeGly(cPent)][NMeD]-Morpholide; lactam N-11)	B (a compound having 3 or more and less than 10 is denoted as B)	0.47	C (A compound having a KD ratio of 0.1 or more and less than 3 is denoted as C)

From US20240158446A1, “CYCLIC COMPOUND HAVING SELECTIVE INHIBITORY ACTION ON KRAS OVER HRAS AND NRAS” (CHUGAI SEIYAKU KABUSHIKI KAISHA, priority 2021, published 2024)
